Measured values: publication PMC7559477, “Zinc Binding by Histatin 5 Promotes Fungicidal Membrane Disruption in C. albicans and C. glabrata” (Journal of Fungi, 2020)
Where no end group is shown, it is not given here.

Experiments:
[1] = system: Candida glabrata strain Cg931010; format: cell-based; settings: strain Cg931010, 18 h
Description: (§1) Experiments were carried out with Candida albicans strain SC5314 [41] or Candida glabrata strain Cg931010 [42]. Liquid and solid pre-mixed yeast-peptone-dextrose media was used to grow yeast cells (YPD and YPD-Agar, respectively) (Fisher Scientific, Waltham, MA, USA). All media was prepared in deionized water with 50 µg/ mL supplemented uridine (Sigma Aldrich, St. Louis, MO, USA), and sterilized by autoclave. Metal salt solutions of ZnSO4·7H2O (Fisher Scientific, Waltham, MA, USA) were made in High-performance liquid chromatography (HPLC)-grade water (JT Baker, Phillipsburg, NJ, USA) and used within one day of preparation. […]
(§2) Cells (C. albicans or C. glabrata) were cultured as previously described. […] Significance of differences in killing between Zn^2+ and Zn^2+-free samples were calculated using one-way ANOVA with Sidak’s multiple comparisons test.
Figure 6 Zinc greatly increases Hst 5 and P113 killing of C. glabrata, and induces almost immediate ATP efflux. […] Cells were removed from samples via centrifugation and aliquots of supernatant were taken at 1 and 10 min time points to measure extracellular ATP by luminescence. […] Significance of differences in killing and ATP efflux were calculated using one way ANOVA with Sidak’s multiple comparison test. * indicates p ≤ 0.05, **** indicates p ≤ 0.0001

[2] = Zinc-binding competition assay with Zincon; settings: competition with Zincon 1:1, 20 µM peptide, 10 mM NaPB pH 7.4, ZnSO4 titration, absorbance at 621 nm; triplicate, averaged
Description: Binding competition assays were carried out utilizing the colorimetric copper and Zn^2+ binding dye Zincon. Peptides (20 µM) were mixed with Zincon at a 1:1 ratio and titrated with increasing equivalents of ZnSO4. Absorbance at 621 nm was measured at each addition of metal salt using a Lambda 25 UV/Vis spectrophotometer (Perkin Elmer, Waltham, MA, USA). Data were curve fit using a one site competition equation.
Figure 2 The three Hsts are all soluble at a physiological ratio of Zn^2+ to peptide but differ in relative Zn^2+ affinity. (A) Percent solubility of 15 µM Hst 5 (red), Hst 5ΔMB (blue), and P113 (green) in 10 mM sodium phosphate buffer pH 7.4 with increasing ratio of Zn^2+ incubated at room temperature for 30 min. Peptide solubility was measured via NanoDrop A205 after removal of insoluble aggregates by centrifugation. (B) Binding competition assay with Zincon and peptides at 20 µM in 10 mM sodium phosphate buffer pH 7.4 to establish relative affinity of Hst 5 (red), Hst 5ΔMB (blue), and P113 (green) for Zn^2+ at increasing molar ratios. Absorbance of Zincon at 621 nm was measured as an inverse indicator of relative peptide affinity, as Zincon has a blue color when bound to zinc. Experiments were performed in triplicate and averaged.

C. albicans cells = experiment: Peptide uptake (cell association) assay; format: cell-based, Candida albicans; settings: 0.44 fmol/cell, 30 °C, up to 20 min, initial binding subtracted
Description: as §1
C. albicans cells were added to pre-incubated peptides (30 min, 20 °C) alone or at a 1 Zn^2+:2 peptide ratio, and additionally to Hst 5 at a 3 Zn^2+:2 peptide ratio, using a dose of 0.44 fmol peptide/cell. After cells were added, samples were vortexed briefly and immediately centrifuged for 2 min at 6000× g at 20 °C, after which 10 µL supernatant was removed to new tubes and stored at 4 °C for quantification. […] Protein concentration in supernatant samples was measured by NanoDrop. […] Significance of differences in uptake rate and binding between zinc added and zinc free samples were calculated using two-way ANOVA with Sidak’s multiple comparisons test. […]

[3] = system: Candida albicans strain SC5314; experiment: Candidacidal assay, C. albicans; format: cell-based; settings: 0.44 fmol/cell, 1 Zn2+ to 2 peptides, 1 h at 30 °C, 10 mM NaPB pH 7.4; words = versus peptide alone
Description: as §1, §2
(A) Candidacidal assays of C. albicans SC5314 cells with 1 h incubation at 30 °C of Hst 5 (red), Hst 5ΔMB (blue), and P113 (green) at dosages of 0.44, 3.75, 7.5, 15, and 30 fmol/cell in 10 mM sodium phosphate buffer pH 7.4. […] Significance of differences in killing activity were calculated using one way ANOVA with Sidak’s multiple comparisons test. * indicates p ≤ 0.05, ** indicates p ≤ 0.01, **** indicates p ≤ 0.0001.

[4] = system: Candida albicans (SC5314); experiment: Extracellular ATP quantification (ATP efflux), C. albicans; format: cell-based; settings: 0.88 fmol/cell; for ATP efflux with added Zn2+: 1:2 ZnSO4:peptide, 10 mM NaPB pH 7.4, words = versus peptide alone; for total ATP efflux: peptide alone, 10 mM NaPB pH 7.4, luminescence
Description: (§3) Candida albicans (SC5314) or Candida glabrata (Cg931010) cells were prepared as for peptide uptake assays, with the exception that cells were added to samples at a dosage of 0.88 fmol peptide/cell in a 1:2 ratio of ZnSO4:peptide. After samples were mixed, each was immediately centrifuged for 2 min at 6000× g at room temperature, after which 10 µL supernatant was removed to new tubes and added to 84 µL boiling TE buffer (50 mM Tris pH 7.5, 2 mM EDTA pH 8) (1-min time point). Pelleted cells were resuspended with vortexing. After this, samples were incubated at 30 °C (220 rpm) and removed from incubation for a 10-min time point. Samples in TE buffer were boiled for two more minutes and stored on ice for quantitation. Then, 25µL of each sample were added to 10 µL Staybrite adenosine triphosphate (ATP) assay mix and 65 µL assay buffer (Biovision, Milpitas, CA, USA), and luminescence was immediately measured using a FlexStation 3 plate reader (Molecular Devices, San Jose, CA, USA). Experiments were carried out on at least three separate days. Data were interpolated using a standard curve to determine moles of ATP in each sample. Significant differences between Zn^2+ added and Zn^2+-free samples at each time point were determined using one-way ANOVA and Sidak’s multiple comparisons test.
Figure 5 Zinc induces almost immediate ATP efflux. C. albicans SC5314 bioluminescent ATP efflux assay. Cells were treated at 30 °C with 0.88 fmol/ cell. Hst 5 (red), Hst 5ΔMB (blue), or P113 (green) in 10 mM sodium phosphate buffer pH 7.4 with or without added Zn^2+ at a one to two peptides ratio (hatched). Cells were removed from samples via centrifugation and aliquots of supernatant were taken at 1 min and 10 min time points to measure extracellular ATP by luminescence. Experiments were repeated on at least three separate days and averaged. Significance of differences in ATP efflux calculated using one way ANOVA with Sidak’s multiple comparison test. ** indicates p ≤ 0.01, *** indicates p ≤ 0.001.

[5] = system: Candida glabrata (Cg931010); experiment: Extracellular ATP quantification (ATP efflux), C. glabrata; format: cell-based; settings: 0.88 fmol/cell
Description: as §3, with “test. […]” for “test.”

[6] = Peptide solubility assay (Zn2+-induced precipitation from NaPB); format: physicochemical; settings: 15 µM peptide in 10 mM NaPB pH 7.4, 30 min at room temperature (20 °C), centrifuged 20000 x g 10 min, supernatant by NanoDrop A205, triplicate, averaged
Description: Aggregation was quantified by measuring peptide precipitation from NaPB. Molar ratios of [0:0], [0:1], [1:2], [1:1], [2:1], [3:1], and [4:1] ZnSO4 to 15 µM peptide were used and samples were incubated for 30 min at room temperature (20 °C) before centrifugation. Samples were spun at 20000× g for 10 min at room temperature and the protein concentrations of the supernatants were subsequently measured using microvolume spectrophotometry (NanoDrop One, Thermofisher Scientific, Waltham, MA, USA) Data were cleaned using robust regression and outlier removal (ROUT) with Q set to 1%. Cleaned data were baseline corrected by subtracting peptide- and metal- free NaPB (0:0). […] Percent aggregation out of total peptide added was calculated. […] Statistical differences between the peptides at each metal salt titration were calculated using two-way ANOVA with Tukey’s multiple comparison test.
Figure 2 The three Hsts are all soluble at a physiological ratio of Zn^2+ to peptide but differ in relative Zn^2+ affinity. […] Peptide solubility was measured via NanoDrop A205 after removal of insoluble aggregates by centrifugation. […] Absorbance of Zincon at 621 nm was measured as an inverse indicator of relative peptide affinity, as Zincon has a blue color when bound to zinc. […]

Compound	killing less than in C. albicans under the same conditions [1] [%]	relative affinity for Zn2+ [2]	total uptake with added Zn2+ (C. albicans cells; 1 Zn2+:2 peptide, 10 mM NaPB pH 7.4, words = versus peptide alone) [pmol]	total uptake (C. albicans cells; peptide alone, 10 mM NaPB pH 7.4, supernatant by NanoDrop, at least three days, averaged) [pmol]	killing with added Zn2+ [3]	ATP efflux with added Zn2+ ([4]; 1 min)	total ATP efflux ([4]; 1 min, at least three days, averaged) [pmol]	ATP efflux with added Zn2+ ([4]; 10 min at 30 °C)	total ATP efflux ([4]; 10 min at 30 °C) [pmol]	ATP efflux total ([5]; 1 min, peptide alone, 10 mM NaPB pH 7.4, luminescence) [pmol]	ATP efflux with added Zn2+ ([5]; 10 min, 1:2 Zn2+:peptide, 10 mM NaPB pH 7.4, words = versus 1 min)	precipitation of peptide ([6]; 1:1 Zn2+:peptide) [%]	precipitation of peptide ([6]; 4:1 Zn2+:peptide) [%]
C[C@H](NC(=O)[C@H](Cc1c[nH]cn1)NC(=O)[C@H](CO)NC(=O)[C@@H](N)CC(=O)O)C(=O)N[C@@H](CCCCN)C(=O)N[C@@H](CCCNC(=N)N)C(=O)N[C@@H](Cc1c[nH]cn1)C(=O)N[C@@H](Cc1c[nH]cn1)C(=O)NCC(=O)N[C@@H](Cc1ccc(O)cc1)C(=O)N[C@@H](CCCCN)C(=O)N[C@@H](CCCNC(=N)N)C(=O)N[C@@H](CCCCN)C(=O)N[C@@H](Cc1ccccc1)C(=O)N[C@@H](Cc1c[nH]cn1)C(=O)N[C@@H](CCC(=O)O)C(=O)N[C@@H](CCCCN)C(=O)N[C@@H](Cc1c[nH]cn1)C(=O)N[C@@H](Cc1c[nH]cn1)C(=O)N[C@@H](CO)C(=O)N[C@@H](Cc1c[nH]cn1)C(=O)N[C@@H](CCCNC(=N)N)C(=O)NCC(=O)N[C@@H](Cc1ccc(O)cc1)C(=O)O [Hst 5, Histatin 5]	40												
QQQAKRHHGYKRKFQQQQQSHRGY [Hst 5ΔMB]		lowest affinity	90	370	did not significantly alter	did not significantly increase	85	did not significantly increase	257	≤ 30	over 100 pmol	14	25
